# Measurements from patent publication US8058307B2, “Alcanoic acid amides substituted by saturated O-heterocycles” (Novartis AG, priority 2005, dated 2011).
# Target: T1, renin (Homo sapiens, UniProt P00797)
# T1 construct: This test measures the formation of angiotensin I in human plasma; from tissue; host or cells: human plasma
# T1 sequence (P00797 67-406): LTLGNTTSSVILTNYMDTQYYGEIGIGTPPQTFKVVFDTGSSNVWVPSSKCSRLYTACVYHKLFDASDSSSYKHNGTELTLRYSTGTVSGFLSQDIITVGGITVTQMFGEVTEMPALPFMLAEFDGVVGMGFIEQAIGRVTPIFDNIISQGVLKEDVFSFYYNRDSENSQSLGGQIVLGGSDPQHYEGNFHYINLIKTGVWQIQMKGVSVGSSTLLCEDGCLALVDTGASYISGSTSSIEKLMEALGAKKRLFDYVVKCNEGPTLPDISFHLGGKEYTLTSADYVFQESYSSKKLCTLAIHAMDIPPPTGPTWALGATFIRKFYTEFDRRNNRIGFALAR
# Test: in vitro test of Nussberger et al.: formation of angiotensin I in human plasma, radio-immunoassay
# Type: biochemical
# Settings: concentration which reduces the formation of angiotensin I in human plasma by 50%
# Experimental: The effect of renin inhibitors is detected inter alia experimentally by means of in vitro tests where the reduction in the formation of angiotensin I is measured in various systems (human plasma, purified human renin together with synthetic or natural renin substrate). The following in vitro test of Nussberger et al. (1987) J. Cardiovascular Pharmacol., Vol. 9, pp. 39-44, is used inter alia. This test measures the formation of angiotensin I in human plasma. The amount of angiotensin I formed is determined in a subsequent radio-immunoassay. The effect of inhibitors on the formation of angiotensin I is tested in this system by adding various concentrations of these substances. The IC50 is defined as the concentration of the particular inhibitor which reduces the formation of angiotensin I by 50%.
compound,measurement,value
"COCCCOc1cc(C[C@@H](C[C@H](N)[C@@H](O)C[C@H](C(=O)NC[C@H]2CCCO2)C(C)C)C(C)C)ccc1OC [Example 1, 5-Amino-4-hydroxy-2-isopropyl-7-[4-methoxy-3-(3-methoxypropoxy)benzyl]-8-methyl-N-(tetrahydrofuran-2(R)-ylmethyl)nonamide]",IC50,2.6 nM
